The values that follow come from patent US10189863B2, “5,6-dihydro-4H-benzo[b]thieno-[2,3-d]azepine derivatives” (PULMOCIDE LIMITED, priority 2014, dated 2019).

Each structure is given as a SMILES string.

The nature of series [1]: Cell viability: resazurin assay. In kind it is cell-based, human. Conditions: human, HEp2 cells. Put shortly:
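HEp2 cells in 5% FBS DMEM exposed to compounds (0.5% DMSO final) for 5 days at 37 °C/5% CO2, then resazurin added for 6 h; fluorescence read at 545/590 nm. Percent viability loss calculated versus 0.5% DMSO vehicle, with increases shown as negative values; CC50 taken from concentration-response curves where appropriate.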
Background: Alamar Blue is a resazurin reagent that responds to reducing activity.

In the next series the test system is RSV B Washington strain. Nature of the series: Assessment of RSV induced CPE in HEp2 cells (RSV B Washington strain). It is filed as cell-based. Conditions: human respiratory syncytial virus, HEp2 cells; for IC50: HEp-2, 144 h, 1 MOI, 6 days, read-out: RSV B CPE IC50; for inhibition at 1 µg/mL / inhibition at 0.1 µg/mL: HEp-2; for inhibition at 1 µg/mL: Inhibition (%) at 1 μg/mL, read-out: RSV B CPE % Inhibition; for inhibition at 0.1 µg/mL: Inhibition (%) at 0.1 μg/mL. The procedure, abridged: (§1)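 HEp2 cells were infected at MOI 1 with RSV A2 or RSV B Washington, with compound added at the same time (0.5% DMSO final). Incubation was 5 days for A2 and 6 days for B, then viability was read by resazurin fluorescence (545/590 nm) after 6 h. IC50, IC75 and IC90 came from concentration-response curves.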

Another series concerns RSV A2 strain. Briefly: Assessment of RSV induced CPE in HEp2 cells (RSV A2 strain). It is filed as cell-based. Conditions: human respiratory syncytial virus, HEp2 cells; for IC50: HEp-2, 120 h, 1 MOI, 5 days, read-out: RSV A2 CPE IC50; for inhibition at 0.1 µg/mL / inhibition at 0.01 µg/mL: HEp-2; for inhibition at 0.1 µg/mL: Inhibition (%) at 0.1 μg/mL, read-out: RSV A2 CPE % Inhibition; for inhibition at 0.01 µg/mL: Inhibition (%) at 0.01 μg/mL. Put shortly: as §1

As to `Cc1cccc(F)c1NC(=O)c1cc2c(s1)-c1ccccc1N(C(=O)c1ccc(NC(=O)c3cccnc3N3CC4(CCOCC4)C3)cc1)CC2` [Example 25, 6-(4-(2-(7-oxa-2-azaspiro[3.5]nonan-2-yl)nicotinamido)benzoyl)-N-(2-fluoro-6-methylphenyl)-5,6-dihydro-4H-benzo[b]thieno[2,3-d]azepine-2-carboxamide], the CC50 at 5 days in series [1] is above 14200 nM. Besides, in the series with RSV B Washington strain, the half-inhibitory concentration (IC50) is 20.6 nM and the inhibition at 1 µg/mL was determined as 71%. In the series on RSV A2 strain, the IC50 is 0.18 nM and the inhibition at 0.1 µg/mL was 99%.

Regarding `Cc1cccc(F)c1NC(=O)c1cc2c(s1)-c1ccccc1N(C(=O)c1ccc(NC(=O)c3cc4c(nc3N3CC5(CCOCC5)C3)CCC4)cc1F)CC2` [Example 78, 6-(4-(2-(7-oxa-2-azaspiro[3.5]nonan-2-yl)-6,7-dihydro-5H-cyclopenta[b]pyridine-3-carboxamido)-2-fluorobenzoyl)-N-(2-fluoro-6-methylphenyl)-5,6-dihydro-4H-benzo[b]thieno [2,3-d]azepine-2-carboxamide], the CC50 at 5 days in series [1] is above 13200 nM. In addition, in the series with RSV B Washington strain, the IC50 was 1.3 nM and the inhibition at 1 µg/mL is 94%. In the series on RSV A2 strain, the IC50 worked out at 2.4 nM and the inhibition at 0.01 µg/mL is 89%.

Consider `Cc1cnc(N2CC3(CCOCC3)C2)c(C(=O)Nc2ccc(C(=O)N3CCc4cc(C(=O)Nc5c(F)cccc5C5CC5)sc4-c4ccccc43)cc2)c1` [Example 7, N-(2-Cyclopropyl-6-fluorophenyl)-6-(4-(5-methyl-2-(7-oxa-2-azaspiro[3.5]nonan-2-yl)nicotinamido)benzoyl)-5,6-dihydro-4H-benzo[b]thieno[2,3-d]azepine-2-carboxamide], for which the CC50 at 5 days in series [1] was above 13500 nM. In the series on RSV B Washington strain, the half-inhibitory concentration (IC50) turned out to be 98.6 nM and the inhibition at 1 µg/mL was determined as 94%. In the series with RSV A2 strain, the concentration for half-maximal inhibition (IC50) came out at 0.15 nM and the inhibition at 0.1 µg/mL was 100%.

`Cc1cccc(C#N)c1NC(=O)c1cc2c(s1)-c1ccccc1N(C(=O)c1ccc(NC(=O)c3cc4c(nc3N3CC5(CCOCC5)C3)CCC4)cc1)CC2` [Example 74, 6-(4-(2-(7-oxa-2-azaspiro[3.5]nonan-2-yl)-6,7-dihydro-5H-cyclopenta[b]pyridine-3-carboxamido)benzoyl)-N-(2-cyano-6-methylphenyl)-5,6-dihydro-4H-benzo[b]thieno[2,3-d]azepine-2-carboxamide] registered a half-maximal cytotoxic concentration (CC50) at 5 days in series [1] above 13400 nM. In the series on RSV B Washington strain, the IC50 is 3.8 nM and the inhibition at 1 µg/mL was 77%. Further, in the series with RSV A2 strain, the 50% inhibitory concentration (IC50) worked out at 0.88 nM and the inhibition at 0.01 µg/mL worked out at 100%.

In the case of `C=Cc1cccc(F)c1NC(=O)c1cc2c(s1)-c1ccccc1N(C(=O)c1ccc(NC(=O)c3cc(C)cnc3N3CC4(CCOCC4)C3)cc1)CC2` [Example 36, N-(2-fluoro-6-vinylphenyl)-6-(4-(5-methyl-2-(7-oxa-2-azaspiro[3.5]nonan-2-yl)nicotinamido)benzoyl)-5,6-dihydro-4H-benzo[b]thieno[2,3-d]azepine-2-carboxamide], the cytotoxic concentration (CC50) at 5 days in series [1] was above 13700 nM. In the series with RSV B Washington strain, the IC50 turned out to be 13.4 nM and the inhibition at 1 µg/mL is 99%. Also, in the series on RSV A2 strain, the IC50 was 0.16 nM and at 0.01 µg/mL the inhibition was 95%.

`Cc1cnc(N2CC3(CCOCC3)C2)c(C(=O)Nc2ccc(C(=O)N3CCc4cc(C(=O)Nc5c(F)cccc5C(F)(F)F)sc4-c4ccccc43)cc2)c1` [Example 63, N-(2-fluoro-6-(trifluoromethyl)phenyl)-6-(4-(5-methyl-2-(7-oxa-2-azaspiro[3.5]nonan-2-yl)nicotinamido)benzoyl)-5,6-dihydro-4H-benzo[b]thieno[2,3-d]azepine-2-carboxamide] showed a half-maximal cytotoxic concentration (CC50) at 5 days in series [1] above 13000 nM. Moreover, in the series with RSV B Washington strain, the IC50 turned out to be 1.6 nM and the inhibition at 1 µg/mL was found to be 100%. Also, in the series on RSV A2 strain, the concentration for half-maximal inhibition (IC50) was found to be 0.058 nM and the inhibition at 0.01 µg/mL worked out at 95%.

For the compound `CCc1cnc(N2CC3(CCOCC3)C2)c(C(=O)Nc2ccc(C(=O)N3CCc4cc(C(=O)Nc5c(C)cccc5F)sc4-c4ccccc43)cc2)c1` [Example 60, 6-(4-(5-ethyl-2-(7-oxa-2-azaspiro[3.5]nonan-2-yl)nicotinamido)benzoyl)-N-(2-fluoro-6-methylphenyl)-5,6-dihydro-4H-benzo[b]thieno[2,3-d]azepine-2-carboxamide], the CC50 at 5 days in series [1] is above 13700 nM. Further, in the series on RSV B Washington strain, the half-inhibitory concentration (IC50) stood at 9.5 nM and the inhibition at 1 µg/mL was found to be 100%. Besides, in the series with RSV A2 strain, the IC50 worked out at 0.14 nM and the inhibition at 0.1 µg/mL was 92%.

For the compound `Cc1cccc(F)c1NC(=O)c1cc2c(s1)-c1ccccc1N(C(=O)c1ccc(NC(=O)c3cc(Cl)cnc3N3CC4(CCOCC4)C3)cc1)CC2` [Example 69, 6-(4-(5-chloro-2-(7-oxa-2-azaspiro[3.5]nonan-2-yl)nicotinamido)benzoyl)-N-(2-fluoro-6-methylphenyl)-5,6-dihydro-4H-benzo[b]thieno[2,3-d]azepine-2-carboxamide], the CC50 at 5 days in series [1] is above 13600 nM. In the series on RSV B Washington strain, the IC50 was found to be 15.3 nM and the inhibition at 1 µg/mL was found to be 100%. For the same compound, in the series with RSV A2 strain, the IC50 was 0.45 nM and testing at 0.01 µg/mL gave an inhibition of 96%.

Compound `O=C(Nc1c(F)cccc1Cl)c1cc2c(s1)-c1ccccc1N(C(=O)c1ccc(NC(=O)c3cc4c(nc3N3CC5(CCOCC5)C3)CCC4)cc1F)CC2` [Example 80, 6-(4-(2-(7-oxa-2-azaspiro[3.5]nonan-2-yl)-6,7-dihydro-5H-cyclopenta[b]pyridine-3-carboxamido)-2-fluorobenzoyl)-N-(2-chloro-6-fluorophenyl)-5,6-dihydro-4H-benzo[b]thieno [2,3-d]azepine-2-carboxamide] returned a CC50 at 5 days in series [1] above 12800 nM. Moreover, in the series with RSV B Washington strain, the concentration for half-maximal inhibition (IC50) was determined as 1.6 nM and the inhibition at 1 µg/mL turned out to be 93%. Further, in the series with RSV A2 strain, the IC50 was found to be 2 nM and the inhibition at 0.01 µg/mL amounted to 91%.

In the case of `Cc1cnc(N2CC3(COC3)C2)c(C(=O)Nc2ccc(C(=O)N3CCc4cc(C(=O)Nc5c(C)cccc5F)sc4-c4ccccc43)cc2)c1` [Example 90, N-(2-fluoro-6-methylphenyl)-6-(4-(5-methyl-2-(2-oxa-6-azaspiro[3.3]heptan-6-yl)nicotinamido)benzoyl)-5,6-dihydro-4H-benzo[b]thieno[2,3-d]azepine-2-carboxamide], the cytotoxic concentration (CC50) at 5 days in series [1] is above 14500 nM. In the series on RSV B Washington strain, the IC50 amounted to 508 nM and the inhibition at 1 µg/mL is 99%. Besides, in the series on RSV A2 strain, the IC50 was found to be 1.8 nM and the inhibition at 0.01 µg/mL came out at 100%.

In series [1], `Cc1cccc(F)c1NC(=O)c1cc2c(s1)-c1ccccc1N(C(=O)c1ccc(NC(=O)c3cc4sccc4nc3N3CC4(CCOCC4)C3)cc1)CC2` [Example 89, 6-(4-(5-(7-oxa-2-azaspiro[3.5]nonan-2-yl)thieno[3,2-b]pyridine-6-carboxamido)benzoyl)-N-(2-fluoro-6-methyl-phenyl)-5,6-dihydro-4H-benzo[b]thieno[2,3-d]azepine-2-carboxamide] registered a 50% cytotoxic concentration (CC50) at 5 days above 13200 nM. Moreover, in the series with RSV B Washington strain, the IC50 was determined as 19.4 nM and at 0.1 µg/mL the inhibition was 100%. Besides, in the series on RSV A2 strain, the IC50 amounted to 0.5 nM and the inhibition at 0.01 µg/mL stood at 100%.

For the compound `Cc1cnc(N2CC3(CCOCC3)C2)c(C(=O)Nc2ccc(C(=O)N3CCc4cc(C(=O)Nc5c(F)cccc5F)sc4-c4ccccc43)cc2)c1` [Example 47, N-(2,6-difluorophenyl)-6-(4-(5-methyl-2-(7-oxa-2-aza-spiro[3.5]nonan-2-yl)nicotinamido)benzoyl)-5,6-dihydro-4H-benzo[b]thieno[2,3-d]azepine-2-carboxamide], in series [1], the CC50 at 5 days is above 13900 nM. For the same compound, in the series with RSV B Washington strain, the concentration for half-maximal inhibition (IC50) is 5.7 nM and the inhibition at 0.1 µg/mL was found to be 100%. For the same compound, in the series on RSV A2 strain, the IC50 was 0.13 nM and testing at 0.01 µg/mL gave an inhibition of 100%.

Broadly, the CC50 is the concentration that lowers cell viability or growth by half. The low end stands for greater toxicity to the cells, the high end for lower toxicity to the cells. In general, IC50 refers to the point on the concentration scale where inhibition reaches its midpoint. A word on the inhibition: it is the drop in the measured response relative to a control, in per cent.
